One may read the IC50 as the concentration needed to halve the response being measured. Usually Cmax stands for the maximum level reached in the sampled fluid or tissue. Usually AUC(0-t) stands for the area under the concentration-time curve up to a stated or last time point. Low values mean less exposure, high ones more exposure. Usually half-life stands for the time in which the quantity being followed falls by half. Higher therefore signals slow decline. A word on the Ki: it is a measure of affinity in units of concentration, obtained from inhibition or displacement.

SMILES strings stand for the structures. Read-outs that look alike come from different tables or passages of the source.

One data set has as its target T1, murine sEH (Mus musculus, UniProt P34914).
T1 sequence (P34914 1-554): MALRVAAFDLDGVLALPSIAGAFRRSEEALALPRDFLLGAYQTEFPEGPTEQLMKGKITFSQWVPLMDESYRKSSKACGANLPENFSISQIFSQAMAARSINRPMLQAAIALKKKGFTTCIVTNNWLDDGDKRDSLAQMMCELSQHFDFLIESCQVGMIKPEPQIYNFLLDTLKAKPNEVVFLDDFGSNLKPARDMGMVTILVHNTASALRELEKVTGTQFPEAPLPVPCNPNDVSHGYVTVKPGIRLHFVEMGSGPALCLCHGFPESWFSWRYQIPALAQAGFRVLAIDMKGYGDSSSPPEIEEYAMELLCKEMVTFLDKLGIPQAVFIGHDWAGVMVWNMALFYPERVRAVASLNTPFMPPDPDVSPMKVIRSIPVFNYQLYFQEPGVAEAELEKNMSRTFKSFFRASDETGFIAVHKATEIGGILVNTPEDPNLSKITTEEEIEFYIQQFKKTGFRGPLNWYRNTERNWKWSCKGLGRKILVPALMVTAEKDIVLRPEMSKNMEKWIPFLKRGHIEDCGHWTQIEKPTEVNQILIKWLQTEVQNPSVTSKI
The experiment in a line: Fluorescent sEH inhibition assay.

The test system of data set [1] is ERK phosphorylation in ACHN and A498 cells. Briefly: Immunoblot of ERK phosphorylation after PDGF stimulation. The settings on record: two RCC cell lines (ACHN, A498), 10 μM, 1 h, then PDGF 10 ng/ml 15 min. The format is cell-based, human.
Data set [2] concerns ACHN and A498 human RCC cells. Briefly: MTT assay of cell growth. The format is cell-based. The settings on record: 10 μM, 48 h. (Tetrazolium dyes change colour on reduction, which living cells bring about.)
The conditions of data set [3]: man, phase I study, cited from earlier work.
The subject of data set [4] is caspase-1 and caspase-3 activity in ACHN and A498 cells. Briefly: Caspase assay. The class given is cell-based, human. The settings on record: 10 μM, 48 h.
A further data set in a line: in vivo. The settings on record: male, Swiss-Webster, mouse, po, 5 mg/kg.
For data set [5] the following is noted: mice, sorafenib tosylate 5 mg/kg oral.
Data set [6] addresses T2, human sEH (Homo sapiens, UniProt P34913).
T2 sequence (P34913 1-555): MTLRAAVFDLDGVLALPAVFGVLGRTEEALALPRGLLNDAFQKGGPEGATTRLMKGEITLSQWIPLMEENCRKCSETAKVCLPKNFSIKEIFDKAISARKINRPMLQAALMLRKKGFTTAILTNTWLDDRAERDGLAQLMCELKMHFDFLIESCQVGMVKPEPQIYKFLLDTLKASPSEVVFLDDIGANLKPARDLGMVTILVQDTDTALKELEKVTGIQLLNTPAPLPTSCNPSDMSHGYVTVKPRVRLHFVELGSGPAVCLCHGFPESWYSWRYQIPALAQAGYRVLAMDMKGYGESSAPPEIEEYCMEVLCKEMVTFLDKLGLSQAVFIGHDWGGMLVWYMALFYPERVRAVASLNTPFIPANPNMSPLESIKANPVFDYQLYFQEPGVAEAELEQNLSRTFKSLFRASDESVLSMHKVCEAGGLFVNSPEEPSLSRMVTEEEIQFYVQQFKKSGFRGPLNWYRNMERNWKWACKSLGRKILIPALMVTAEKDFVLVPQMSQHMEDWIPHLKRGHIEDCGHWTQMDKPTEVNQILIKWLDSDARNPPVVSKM
The experiment in a line: biochemical. The format is biochemical.

Data set [7] has as its target T2, human sEH. The format is biochemical. The settings on record: read-out: Inhibition of the Human sEH KI; pH 7.4.

`Cc1nc(Nc2ncc(C(=O)Nc3c(C)cccc3Cl)s2)cc(N2CCN(CCO)CC2)n1` [Dasatinib] came in with an IC50 on murine sEH of 27 µM.

On to `COc1cccc(-c2cc(=O)c3ccccc3o2)c1N` [PD98059], for which, in data set [1], the ERK phosphorylation result was “attenuate ERK phosphorylation”.

For the compound `CNC(=O)c1cc(Oc2ccc(NC(=O)Nc3ccc(Cl)c(C(F)(F)F)c3)cc2)ccn1` [Sorafenib], the “Decrease of cell growth as compared to serum-stimulated cells” value in data set [2] is 65-70%. Moreover, in [3] (similar doses), the Cmax is > 1500 nM. In data set [3], the AUC0-12 result is recorded as “more than 13000 nM h”, the Elimination half life entry is reported as “more than 20 hours” and the Tmax entry is listed as “more than 2 h”. The “Apoptosis: caspase-1 and caspase-3 activity” value in [4] is “activation of caspase-1 and caspase-3 activity”. For the same compound, in the data set “in vivo”, the exposure AUC(0-t) was 0.63 µM·h, the Cmax is ~120 nM and the half-life was 2.6 h. For the same compound, the “Blood level after 24 h” value in data set [5] is recorded as “no sorafenib could be detected”. Further, the ERK phosphorylation entry in data set [1] is “attenuate ERK phosphorylation”.

For the compound `CCN(CC)CCNC(=O)c1c(C)[nH]c(/C=C2\C(=O)Nc3ccc(F)cc32)c1C` [Sunitinib], the IC50 against human sEH [6] was 55 µM. Moreover, on human sEH [6] (fluorescent assay), the “Inhibition of the human sEH (in words)” value is “not potent inhibitors of the human sEH”.

Turning to `CS(=O)(=O)N1CCC(NC(=O)Nc2ccc(OC(F)(F)F)cc2)CC1` [TUPS], on human sEH [7], the Ki turned out to be 0.014 ± 0.004 µM. The half-maximal inhibitory concentration (IC50) at human sEH [6] (read-out: Inhibition of the Human sEH IC50, pH 7) worked out at 0.003 ± 0.001 µM.
